Here are results for 15 compounds from patent US5108993A, “Pharmaceutical composition comprising zidovudine and inosiplex or components thereof for the treatment of aids-related syndromes” (priority 1988, dated 1992).

Where two headings read alike, the source gives them in different places.

The subject of one series is HIV. Particulars: cited from earlier work.
Series [1] relates to RNA-dependent DNA-polymerase (viral reverse transcriptase). Particulars: in vitro incorporation into DNA growing chains, DNA chain terminated; cited from earlier work.
A further series concerns bone marrow. Briefly: Bone marrow toxicity of AZT in the study patients before the study. In kind it is in vivo, AIDS patients. To be noted: 200 mg AZT orally every four hours (1,200 mg daily), and again on 800 mg daily for 2 months; 5 patients.
Series [2] relates to HIV (Human Immunodeficiency Virus). Particulars: cited from earlier work.
A short description of series [3]: Clinical Study No. 2: plasma/serum AZT by radioimmunoassay, AZT alone then AZT + p-acetamidobenzoic acid. It counts as in vivo, AIDS patients. To be noted: for Cmax: human, plasma, po, 100 mg, mean peak plasma level of AZT; for concentration: read-out: mean nadir level of AZT. The procedure: (§1) The patients were then placed on the following dosing regimen:
(§2) No other drugs that are believed to affect hepatic glucuronidation were administered.

Series [4] can be described thus: Pharmacokinetics studies of AZT 100 mg every 6 hours before the study. It counts as in vivo, AIDS patients. Particulars: 100 mg AZT every 6 hours (400 mg total daily dose).
Series [5] is described as follows: Clinical Study 3: plasma/serum AZT by radioimmunoassay, AZT alone then AZT + inosine + INPX. It counts as in vivo, AIDS patients. Particulars: for Cmax: human, plasma, po, 100 mg, mean peak plasma level of AZT; for concentration: read-out: mean nadir level of AZT. The procedure:
as §1, §2

For series [6] the following is noted: cited from earlier work.
Series [7] in a line: Clinical Study 1: plasma/serum AZT by radioimmunoassay, AZT alone then AZT + inosiplex. In kind it is in vivo, AIDS patients. Particulars: for Cmax: plasma, mean peak plasma level of AZT; for concentration: read-out: mean nadir level of AZT. The procedure: as §1, §2
Setting [8] is: with zidovudine, GB 2 181 128 A.

Take `NC(=O)C1CN(CC(=O)Nc2c(Cl)cccc2Cl)CCN1CCCC(c1ccc(F)cc1)c1ccc(F)cc1` (centres unmarked) [mioflazine]: the effect on zidovudine entry in the series on HIV (setting [8]) is recorded as “synergistic effect”.

For `Cc1cn([C@H]2C[C@H](N=[N+]=[N-])[C@@H](CO[P@](=O)(O)O[P@](=O)(O)OP(=O)(O)O)O2)c(=O)[nH]c1=O` [zidovudine triphosphate], the “effect on RNA-dependent DNA-polymerase (viral reverse transcriptase)” value in [1] was “incorporated into the DNA growing chains by viral reverse transcriptase, whereby DNA chain is terminated”.

As to `Cc1cccc(C)c1NC(=O)CN1CCN(CCCC(c2ccc(F)cc2)c2ccc(F)cc2)CC1` [lidoflazine], the effect on zidovudine result in the series on HIV (setting [8]) is “synergistic effect”.

`COc1cc(C(=O)OCCCN2CCCN(CCCOC(=O)c3cc(OC)c(OC)c(OC)c3)CC2)cc(OC)c1OC` [dilazep]: the effect on zidovudine entry in the series with HIV (setting [8]) is “synergistic effect”.

With `COc1cc(C(=O)OCCCN(C)CCN(C)CCCOC(=O)c2cc(OC)c(OC)c(OC)c2)cc(OC)c1OC` [hexobendine], in the series with HIV (setting [8]), the effect on zidovudine result is “synergistic effect”.

Take `OCCN(CCO)c1nc(N2CCCCC2)c2nc(N(CCO)CCO)nc(N3CCCCC3)c2n1` [dipyridamole]: the effect on zidovudine entry in the series on HIV (setting [8]) is “synergistic effect”.

For the compound `Cc1cn([C@H]2C[C@H](N=[N+]=[N-])[C@@H](CO)O2)c(=O)[nH]c1=O` [AZT, 3'-azido-3'-deoxythymidine], the bone marrow toxicity entry with bone marrow is on record as “developped bone marrow toxicity”. In addition, the “inhibition of in vitro replication of some retroviruses, including HIV” value in series [2] was “inhibitor of the in vitro replication of some retroviruses, including HIV”. Further, in series [3] (before the taking of AZT alone or of AZT and p-acetamidobenzoic acid), the “serum level at time 0” value is 10 nM. Besides, the highest concentration (Cmax) in series [3] (100 mg AZT with 1 gm p-acetamidobenzoic acid every 6 hrs, day 14, standard deviation 1.8 μM, range 0.16 to 4.7 μM) was 2450 nM; in series [3] (AZT alone 100 mg oral every 6 hours, day 7, standard deviation 0.75 μM, range 0.04 to 2.46 μM), 1520 nM; in [5] (100 mg AZT with 1 gm inosine and 1 gm INPX every 6 hrs, day 14, standard deviation 1.3 μM, range 0.15 to 4.2 μM) it was 2760 nM; in series [5] (AZT alone 100 mg oral every 6 hours, day 7, standard deviation 0.70 μM, range 0.03 to 2.16 μM), 1410 nM; in [7] (human, po, 100 mg, 100 mg AZT with 1 gm INPX every 6 hrs, day 14, standard deviation 1.5 μM, range 0.14 to 4.4 μM) it was 2250 nM; in [7] (human, po, 100 mg, AZT alone 100 mg oral every 6 hours, day 7, standard deviation 0.75 μM, range 0.06 to 2.52 μM), 1470 nM. Also, the concentration in [3] (100 mg AZT with 1 gm p-acetamidobenzoic acid every 6 hrs, day 14, standard deviation 0.28 μM, range 0.14 to 0.88 μM) is 490 nM; in series [3] (AZT alone 100 mg oral every 6 hours, day 7, standard deviation 0.19 μM, range 0.04 to 0.6 μM) it was 250 nM; in series [5] (100 mg AZT with 1 gm inosine and 1 gm INPX every 6 hrs, day 14, standard deviation 0.26 μM, range 0.11 to 0.82 μM), 510 nM; in series [5] (AZT alone 100 mg oral every 6 hours, day 7, standard deviation 0.16 μM, range 0.06 to 0.8 μM) it was 210 nM; in series [7] (100 mg AZT with 1 gm INPX every 6 hrs, day 14, standard deviation 0.25 μM, range 0.15 to 0.84 μM), 460 nM; in [7] (AZT alone 100 mg oral every 6 hours, day 7, standard deviation 0.19 μM, range 0.06 to 0.5 μM) it was 240 nM. Besides, in series [4], the plasma levels result is given as “below the therapeutical threshold”. The “AZT serum level at time 0” value in [5] (before the taking of AZT alone or of AZT, inosine and INPX) was determined as 0.016 µM; in series [7] (before the taking of AZT alone or of AZT and INPX), 0.013 µM. In addition, the half-life result in series [6] (average) was “about 1 hour”; in series [7] (human, serum, po, 100 mg, read-out: Serum half-life of the elimination phase (T1/2)) it was 44 min. The metabolic inactivation entry in series [6] (liver) is given as “rapidly inactivated via glucuronidation in the liver”.

Take `Nc1nc2c(ncn2COCCO)c(=O)[nH]1` [acyclovir]: the effect on zidovudine result in the series with HIV (setting [8]) is given as “synergistic effect”.

As for alpha-interferon, the effect on zidovudine entry in the series with HIV (setting [8]) was “synergistic effect”.

With `CCCN(CCC)S(=O)(=O)c1ccc(C(=O)O)cc1` [probenecid], the effect on zidovudine result with HIV (setting [8]) is listed as “synergistic effect”.

For `COc1ccc(Cc2nccc3cc(OC)c(OC)cc23)cc1OC` [papaverine], the effect on zidovudine entry with HIV (setting [8]) is “synergistic effect”.

As to `O=C(O)P(=O)(O)O` [foscarnet], the effect on zidovudine entry with HIV (setting [8]) was “synergistic effect”.

Take `c1ccc([C@H]2CN3CCSC3=N2)cc1` [levamisole]: in the series on HIV, the effect on zidovudine entry is given as “synergistic effect”.

Consider `Cc1ccc(C(=O)Nc2ccc(S(=O)(=O)O)c3cc(S(=O)(=O)O)cc(S(=O)(=O)O)c23)cc1NC(=O)c1cccc(NC(=O)Nc2cccc(C(=O)Nc3cc(C(=O)Nc4ccc(S(=O)(=O)O)c5cc(S(=O)(=O)O)cc(S(=O)(=O)O)c45)ccc3C)c2)c1` [suramine], for which the effect on zidovudine result with HIV (setting [8]) is on record as “synergistic effect”.

With “gamma-interferon: alpha-, beta, and gamma-interferons”, the effect on zidovudine result with HIV (setting [8]) was “synergistic effect”.

In general, Cmax refers to the maximum level reached in the sampled fluid or tissue.
